# According to US20210282443A1, “COMPOUNDS, COMPOSITIONS, AND METHODS FOR MODULATING SWEET TASTE” (Chromocell Corporation, priority 2016, published 2021):
# Test system: perception of sweet taste of High Fructose Corn Syrup (HFCS)
# Assay: 2AFC sip and spit sensory test, sweet taste of HFCS in Lemon Lime beverage
# Format: in vivo, humans
# Settings: Lemon Lime pH 3.1
# Method: The effect of the test compounds and combinations of test compounds on the perception of the sweet taste of a flavored beverage (referred to as Lemon Lime henceforth) of sweetener in humans was evaluated using a two-alternative forced choice “sip and spit” method (2AFC). The Lemon Lime solutions were prepared by adding sucrose equivalent (SE) quantities of high fructose corn syrup (HFCS) (by weight), to water to achieve the desired concentration. The lemon lime pH is 3.1. Compounds were first prepared as a 500-fold concentrated stock solution in 100% ethanol. These concentrated stocks were then added to the aqueous sweetener solutions to result in a final ethanol concentration of 0.2%. The control (positive and negative) samples were also normalized to 0.2% ethanol. This level of ethanol was not seen to contribute any perceived sweetness. The 2AFC test used for compound evaluation was a double blinded and randomized test where taste panelists (n≥15) evaluate a pair of sweetener solutions at a time—one sample contains aqueous sweetener solution plus compound (i.e. test) while the other contains aqueous sweetener solution at higher concentration without compound (i.e. positive control). Each test sample was compared against a positive control. For example, if the test sample contained 1× sweetener concentration with compound (e.g. 5brix HFCS with compound), the positive control sample contained a 1.1× sweetener concentration (e.g. 5.5brix HFCS without compound). In this manner, compounds were not assessed simply for an increase in perceived sweetness, but a significant increase in perceived sweetness above the positive control. […] Data were analyzed using binomial probabilities. Approximate levels of sweetness enhancement in column 5 of Table 1 were calculated as follows: Approximate levels of sweetness enhancement=Sweetener concentration of positive control surpassed by the test sample, divided by sweetener concentration for compound-containing sample (e.g. 1.5×=7.5brix HIFCS/5brix HIFCS).
smiles,measurement,setting,value
"COc1cc(C2CC(=O)Oc3cc(C)cc(O)c32)ccc1O (racemic) [Compound 1, 5-hydroxy-4-(4-hydroxy-3-methoxyphenyl)-7-methylchroman-2-one]",Fold increase in perceived sweetness,"25 ppm compound, 10 brix HFCS / 7.14 brix HFCS",>1.4×
same,Compund concentration with positive 2AFC results,"test sample 7.14 brix HFCS vs positive control 10 brix HFCS, panelists n≥15",25 ppm
same,Sweetener Concentration of positive control surpassed by test sample,test sample 7.14 brix HFCS with 25 ppm compound,10 brix HFCS
